Values of other authors, collected in US20040147581A1, “Method of using a Cox-2 inhibitor and a 5-HT1A receptor modulator as a combination therapy” (Pharmacia Corporation, priority 2002, published 2004).

Tested on: fibroblast growth factor-induced corneal angiogenesis
Settings: rats

SMILES: Cc1ccc(-c2cc(C(F)(F)F)nn2-c2ccc(S(N)(=O)=O)cc2)cc1 [Celecoxib, celecoxib]
- inhibition of fibroblast growth factor-induced corneal angiogenesis: potent inhibition
